Several values for one entry are separate records, joined by “and”; a condition that tells them apart may be missing. Identical values can stand only once. Marks after values point to notes of the source that are not given here.
How the values were obtained:
MOG-induced EAE [1] = test: MOG-induced EAE, lower doses of laquinimod with GA-blocking (Example 2.2); type: in vivo, C57B1/6 mice; conditions: GA-blocking 12.5 mg/kg in inoculum day 0
Method: MOG is a member of the immunoglobulin superfamily expressed exclusively in CNS myelin. It is one of the most encephalitogenic proteins and is widely used to induce EAE in different rodent strains. In C57BL/6 mice, immunization with the MOG peptide pMOG35-55 in CFA induces chronic progressive EAE.
24 mg MOG was diluted in 8 ml PBS (3 mg/ml, stock solution). Groups 1, 3 and 5: 3.5 ml of stock solution was diluted 1:1 with PBS. […] 4.5 ml of MOG stock solution was added to this solution.
The high dose LAQ (5 mg/10 ml/kg) solution (40 mg in 80 ml DDW) was prepared once weekly and stored at room temperature. For the dose of 2.5 mg/kg LAQ, 25 ml of this solution were added to 25 ml DDW. For the dose 1 mg/kg 5 ml of stock solution (high dose) were added to 20 ml DDW. The compound was administered by gavage once daily during the whole experiment (30 days) at a volume of 0.2 ml/mouse.
The mice were observed daily from the 9th day post-EAE induction (first injection of MOG) and the EAE clinical signs were scored according to the grades described in the 2 above.

MOG-induced EAE [2] = test: MOG-induced EAE with GA blocking and s.c. daily GA (Example 2.5); type: in vivo, C57B1 mice
Method: The objective of this study was to test the suppressive effect of laquinimod alone and in combination with Glatiramer acetate in the EAE model in C57B1 mice. […] Laquinimod was administered orally at dose levels of 2.5 and 5.0 mg/kg.
EAE was induced in the mice by the injection of the encephalitogenic emulsion (MOG/CFA). Laquinimod was administered orally for 30 consecutive days.
EAE induction EAE was induced by injecting the encephalitogenic mixture (emulsion) consisting of MOG ([…]). A 0.2 ml emulsion was injected subcutaneously into the flanks of the mice. Pertussis toxin was injected intraperitoneally on the day of induction and 48 hours later (total amount will be 0.150+0.150=0.300 μg/mouse in 0.2 ml dosage volume).
Groups 1, 3-8: 45.9 mg MOG was diluted in […] Normal Saline (3.0 mg/ml MOG stock solution). 12.5 mL of 3.0 mg/ml stock solution was diluted in 12.5 mL Normal Saline to yield 1.5 mg MOG/mL. […] The emulsification was made from equal parts of oil and liquid portions (1:1) in two syringes connected to each other with Leur lock, transferred to insulin syringe and 0.2 ml was injected the right flank of each mouse. The dose of the MOG in all the groups (1 to 8) was […].
The test concentrations of laquinimod were prepared in purified water. For high dose (25.0 mg/kg) 2.5 mg/mL stock solution was prepared (group 8). The 2.5 mg/mL stock solution was diluted 1:5 and 1:10 to yield 0.5 and 0.25 mg/mL for dose levels of 5.0 mg/kg for groups 5 and 7 and 2.5 mg/kg respectively for groups #4 and 6. Laquinimod was administered daily from the initiation of the study, to the respective groups by gavage at a volume of 0.2 ml/mouse.
Every day one tube was thawed and brought to RT.
Clinical signs Scoring of EAE clinical signs was started from Day 10 post EAE induction and was continued daily until Day 30. The clinical signs were recorded according to a grading system described in the Table 2 above.
All mice having scores of 1 and above were considered sick. When the first clinical sign appeared all mice were given food soaked in water, which was spread on different places on the bedding of the cages. An animal which continued to have score 5 for three days was killed on humane grounds and given score 6 on the next day. For calculation purposes, the score of animals that were sacrificed or died (6) was carried forward.

MSCH-induced EAE = MSCH-induced EAE in CSJL mice (Example 2.7); type: in vivo, CSJL/F1 mice; conditions: GA blocking 0.5 mg/kg (sub-optimal dose), with encephalitogen
[3] = GA blocking 12.5 mg/kg once with encephalitogen
[4] = GA blocking 12.5 mg/kg once with encephalitogen, listed as GA blocking

## L-glutamic acid polymer with L-alanine, L-lysine and L-tyrosine, acetate (salt) [GA]
MOG-induced EAE [1]
  % inhibition compared to Control (GMS): 77.5%
  Group Mean Score: 0.73***
  Incidence: 11/14
  Mean Disease Duration: 7.1*** days
  Mean Maximal Score: 2.18***
  Mean Onset: 18.7*** days
MOG-induced EAE [2]; GA 250 mg/kg s.c. daily 10 d
  % Inhibition 1 (incidence): 100.0%
  GMS % Inhibition 3: 4.8%
  GMS value: 2.0 ± 1.0
  Incidence: 13/15
  MMS % Inhibition 2: 2.9%
  MMS value: 3.3 ± 1.4
  Mean Duration: 12.1 ± 5.3 days
  Mean Onset: 18.1 ± 5.5 days
MOG-induced EAE [2]; [3]
  % Inhibition 1 (incidence): 57.1%
  GMS value: 0.7 ± 1.0
  Incidence: 6/15
  MMS % Inhibition 2: 61.8%
MOG-induced EAE [2]; [4]
  GMS % Inhibition 3: 66.7%
  MMS value: 1.3 and 1.3 ± 1.8
  Mean Duration: 12.1 days and 12.1 ± 5.3 days
  Mean Onset: 26.1 ± 7.0 days
MOG-induced EAE [2]; GA blocking 12.5 mg/kg once with encephalitogen, listed as GA-Block
  GMS % Inhibition 3: (66.7) %
MSCH-induced EAE
  % Inhibition 1 (incidence): 30.0%
  GMS % Inhibition 3: 61.9%
  GMS value: 1.6 ± 1.5
  Incidence: 7/10
  MMS % Inhibition 2: 42.0%
  MMS value: 2.9 ± 2.1
  Mean Duration: 5.8 ± 4.5 days
  Mean Onset: 17.0 ± 4.9 days
